As usually defined, the IC50 is the concentration that gives 50% inhibition.

The experiment has as its target T1, full-length human PKCα enzyme (Homo sapiens, UniProt P17252).
T1 construct: full-length human PKCα enzyme; purchased Upstate Biotechnology
As to the kind of experiment: Assessment of PKC-α Inhibitory Activity (MALDI-TOF kinase assay). The class given is biochemical. The settings on record: full-length human PKCα 0.12 μg/ml; ATP 45 μM; neurogranin 28-43 peptide 22 μM; 30 minute incubation at 24° C.; MALDI-TOF MS readout. Here is the method:
Measurement of PKCα enzyme activity is performed using full-length human PKCα enzyme (Upstate Biotechnology) at a final concentration of 0.12 μg/ml in a kinase assay buffer (0.09 mg/ml bovine serum albumin (BSA), 210 μM ethylenediaminetetraacetic acid (EDTA), 360 μM CaCl2, 1 mM Tris-HCl, pH=7.5, 0.5 mM MgCl2, 0.015 mg/ml phosphatidylserine and 0.015 mg/ml diacylglycerol). The reaction is initiated by addition of adenosine triphosphate (ATP; final concentration 45 μM) and a peptide substrate consisting of amino acids 28-43 (Ala-Ala-Lys-Ile-Gln-Ala-Ser-Phe-Arg-Gly-His-Met-Ala-Arg-Lys-Lys) of neurogranin (Promega; final concentration 22 μM). After a 30 minute incubation at 24° C. the reaction is terminated by adding 5 μL of the reaction mixture into 50 μL of MALDI matrix solution (5 mg/ml α-cyano-4-hydroxycinnamic acid in 50% Acetonitrile/H2O, 0.1% TFA, 5 mM ammonium phosphate). Two microliters of the stopped reaction mixture is transferred onto a MALDI-TOF mass spectrometer target plate.
All spectra are collected on an Applied Biosystems 4700 Proteomics Analyzer MALDI-TOF MS equipped with a Nd:YAG laser (355 nm, 3 ns pulse width, 200 Hz repetition rate) in negative ion reflector mode. The system is operated with 4700 Explorer software, version 3.0. Automated acquisition parameters are adjusted to capture and average only those individual spectra within defined success criteria. Specifically, signal intensities for the substrate peptide are set to a minimum threshold of 3000 counts and a maximum intensity of 65,000 counts. This ensured that neither null spectra nor saturated spectra are averaged into the final readout. Between 1000 and 1500 laser shots are averaged for each sample. Data are collected in triplicate from 3 successive days to capture the maximum variability related to preparation of enzyme reaction, transfer of samples to MALDI target plates, data collection, and data extraction.
The isotope cluster areas for each peptide substrate and product peaks are extracted into a Microsoft Excel worksheet from the 10×10 array of spectral data simultaneously using the automated analysis function provided within the 4700 Explore software. The isotope cluster area is defined by the software algorithm based on the molecular weight and the general elemental composition of the peptides. The percent conversion (% C) of substrate to product is calculated as the cluster area of the product (P) divided by the sum of the cluster areas of the substrate (S) and the product multiplied by 100 as represented by the following equation: […]
For dose-dependent inhibition studies, the inhibition is plotted as a % Maximal Activity (% MA). Equation one is a measure of the ratio of product to substrate then solving for the % C. However, to measure inhibition of the enzyme activity, one must measure the degree to which that activity (% C) is curtailed. Thus the dose-dependant inhibition data is plotted as % MA where the maximal activity is the % C measured in control reactions with no inhibitor as represented by the following equation: […]

`O=C(Nc1cccc(Nc2nccc(NCCCN3CCOCC3)n2)c1)c1cccnc1` [N-{3-[4-(3-Morpholin-4-yl-propylamino)-pyrimidin-2-ylamino]-phenyl}-nicotinamide] yielded an IC50 of 0.112 µM.

In the case of `c1cc(Nc2nccc(NCCCN3CCOCC3)n2)cc(-c2cccc3[nH]ccc23)c1` [N^2-[3-(1H-Indol-4-yl)-phenyl]-N^4-(3-morpholin-4-yl-propyl)-pyrimidine-2,4-diamine], the IC50 is 0.012 µM.

Regarding `Clc1cccc(Nc2nccc(NCC3CCNCC3)n2)c1` [N^2-(3-Chloro-phenyl)-N^4-piperidin-4-ylmethyl-pyrimidine-2,4-diamine], the IC50 worked out at 0.037 µM.

For the origin of these results see patent US8354407B2 (Boehringer Ingelheim International GmbH, priority 2006, dated 2013).
